Legend:
[1] = biological target: angiotensin II AT1 receptor; assay: Assay A: Angiotensin II binding activity, rat uterine membrane preparation, 125I-AII displacement
[2] = test system: rabbit aortic rings; assay: Assay B: In vitro vascular smooth muscle response for AII (antagonist activity, pA2); type: cell-based; conditions: Oryctolagus cuniculus, two values in a cell = two determinations
Procedure, shortened: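 Endothelium-denuded thoracic aortic rings from male New Zealand white rabbits, in oxygenated Krebs at 37° C. under ~1 g tension, gave isometric AII contraction curves (3×10^−10 to 1×10^−5 M).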

[3] = test system: pressor response to AII; assay: Assay C: In vivo intragastric pressor assay response for AII antagonists; parameters: species or system Sprague-Dawley rats; conditions: in vivo pressor response, 3 mg/kg intragastrically; for inhibition in vivo at 3 mg/kg: Rattus norvegicus, po
[4] = test system: myocardial fibrosis; conditions: animal models; cited from earlier work

IC50 [1] [µM]	Compound	Kb [2] [µM]	inhibition in vivo at 3 mg/kg [3] [%]	Assay C Duration [3] [min]	prevention of myocardial fibrosis [4]
0.033	CCCCc1nc(-c2ccccc2OC)nn1Cc1ccc(-c2ccccc2-c2nnn[nH]2)nc1 [Compound 276]	0.00195	< 20		
0.03	CCCCc1nc(-c2ccccc2Cl)nn1Cc1ccc(-c2ccccc2-c2nnn[nH]2)nc1 [Compound 278]	0.00324	50	>180	
	CC(=O)S[C@@H]1CC2=CC(=O)CC[C@]2(C)[C@H]2CC[C@@]3(C)[C@@H](CC[C@@]34CCC(=O)O4)[C@H]12 [spironolactone, 17-hydroxy-7α-mercapto-3-oxo-17α-pregn-4-ene-21-carboxylic acid γ-lactone acetate]				prevents myocardial fibrosis

— patent US20040102423A1, “Spironolactone and angiotensin II antagonist combination therapy for treatment of congestive heart failure” (G.D. Searle & Co., priority 1995, published 2004)
